One may read the EC50 as the concentration at which the effect is half-maximal.

For 38 molecules, EC50, Emax and activation results are on record in patent US20240150377A1, “MODULATORS OF CYSTIC FIBROSIS TRANSMEMBRANE CONDUCTANCE REGULATOR” (VERTEX PHARMACEUTICALS INCORPORATED, priority 2020, published 2024).

In the test the target is T1, CFTR (Homo sapiens, UniProt P13569, DEL508-508).
T1 construct: endogenous in cells; host or cells: primary human bronchial epithelial cells from CF subjects (F508del/MF-HBE), differentiated at air-liquid interface
T1 sequence (P13569 with tags, fused parts or gaps DEL508-508): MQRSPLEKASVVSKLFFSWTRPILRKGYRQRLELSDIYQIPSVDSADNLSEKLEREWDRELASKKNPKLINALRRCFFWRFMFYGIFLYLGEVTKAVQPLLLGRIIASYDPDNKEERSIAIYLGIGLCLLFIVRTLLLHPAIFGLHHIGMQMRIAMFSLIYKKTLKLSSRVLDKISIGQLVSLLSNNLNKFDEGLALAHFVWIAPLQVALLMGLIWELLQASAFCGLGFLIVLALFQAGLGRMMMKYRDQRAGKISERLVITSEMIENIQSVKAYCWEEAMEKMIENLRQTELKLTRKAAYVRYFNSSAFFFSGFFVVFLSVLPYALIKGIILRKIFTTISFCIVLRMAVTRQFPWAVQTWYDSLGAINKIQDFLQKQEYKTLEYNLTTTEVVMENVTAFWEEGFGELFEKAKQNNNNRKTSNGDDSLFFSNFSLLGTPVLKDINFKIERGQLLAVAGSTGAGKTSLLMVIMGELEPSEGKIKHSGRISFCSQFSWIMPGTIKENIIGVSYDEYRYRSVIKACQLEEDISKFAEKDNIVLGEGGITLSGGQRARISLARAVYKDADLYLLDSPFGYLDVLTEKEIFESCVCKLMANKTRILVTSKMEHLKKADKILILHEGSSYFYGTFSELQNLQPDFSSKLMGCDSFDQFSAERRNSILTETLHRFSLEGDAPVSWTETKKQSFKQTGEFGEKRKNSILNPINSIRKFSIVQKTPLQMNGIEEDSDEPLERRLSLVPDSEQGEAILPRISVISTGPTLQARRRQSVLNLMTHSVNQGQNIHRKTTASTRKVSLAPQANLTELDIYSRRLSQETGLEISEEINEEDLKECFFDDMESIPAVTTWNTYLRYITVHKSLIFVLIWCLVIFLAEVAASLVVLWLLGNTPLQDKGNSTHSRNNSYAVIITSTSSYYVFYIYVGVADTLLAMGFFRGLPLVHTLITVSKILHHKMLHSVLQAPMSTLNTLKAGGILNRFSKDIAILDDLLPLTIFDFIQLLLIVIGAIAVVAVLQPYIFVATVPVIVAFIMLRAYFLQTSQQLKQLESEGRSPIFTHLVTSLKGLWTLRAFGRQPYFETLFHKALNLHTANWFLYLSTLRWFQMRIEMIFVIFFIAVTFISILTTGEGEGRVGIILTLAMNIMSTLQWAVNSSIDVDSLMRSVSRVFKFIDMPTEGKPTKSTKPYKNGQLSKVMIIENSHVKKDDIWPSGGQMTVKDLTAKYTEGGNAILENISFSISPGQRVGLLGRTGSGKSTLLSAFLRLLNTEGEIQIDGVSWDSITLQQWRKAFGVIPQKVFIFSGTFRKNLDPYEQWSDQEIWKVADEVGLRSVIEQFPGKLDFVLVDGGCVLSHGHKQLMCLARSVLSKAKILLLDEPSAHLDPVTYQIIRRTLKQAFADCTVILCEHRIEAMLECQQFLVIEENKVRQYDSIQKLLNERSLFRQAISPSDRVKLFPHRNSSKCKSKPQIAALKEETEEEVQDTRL
The test can be described thus: HBE assay: Ussing chamber assay of CFTR-mediated short-circuit currents. The format is cell-based. An outline of the steps:
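CFTR-mediated Isc (μA/cm²) equals the peak response to apical 20 μM forskolin minus the residual after a 20 μM each BPO/GlyH-101/CFTR inhibitor 172 cocktail, recorded in Ussing chambers at Vhold 0 mV, 37 °C, pH 7.4, with 30 μM apical amiloride. Cells were F508del/MF HBE cultures preincubated 18-24 h with corrector (concentration range or 10 μM) plus 1 μM ivacaftor in 20% human serum.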

[1] abbreviates: Table 11, read-out: HBE Max Activity (%).
[2] abbreviates: Table 10, read-out: HBE Max activity (%).
The mark [3] stands for this setting: Table 12, at 10 μM, read-out: HBE Activity at 10 μM (%).
Setting [4] is: Table 13, read-out: HBE Max Activity (%).
The mark [5] stands for this setting: Table 13, at 10 μM, read-out: HBE Activity at 10 μM (%).
The mark [6] stands for this setting: Table 12, read-out: HBE Max Activity (%).
Where [7] appears, read: Table 10, at 10 μM, read-out: HBE activity at 10 (μM) (%).
Setting [8] is: HBE assay, read-out: HBE Max activity (%).

Where two headings read alike, the source gives them in different places.

In the case of `Cc1cccc(C)c1-c1cc2nc(n1)NS(=O)(=O)c1cccc(c1)C(=O)N(Cc1ncc(N3CC4CC(C4)C3)cn1)[C@H](CC(C)(C)C)CO2` [Compound 613], the EC50 (HBE EC50 (μM), Table 11) is less than 1 µM. The Emax under setting [1] is more than 60%. As for `Cc1cccc(C)c1-c1cc2nc(n1)NS(=O)(=O)c1cccc(c1)C(=O)N(Cc1ccc(-c3cnc(N)nc3)cc1)[C@H](CC(C)(C)C)CO2` [Compound 782], for the setting “Table 10, read-out: HBE EC50”, the EC50 is less than 1 µM. In addition, the Emax under setting [2] was more than 60%. For `Cc1cccc(C)c1-c1cc2nc(n1)NS(=O)(=O)c1cccc(c1)C(=O)N(Cc1cc3n(n1)CCCO3)[C@H](CC(C)(C)C)CO2` [Compound 456], under setting [3], the activation at 10 µM is more than 600%. For `Cc1cccc(C)c1-c1cc2nc(n1)NS(=O)(=O)c1cccc(c1)C(=O)N(Cc1ncc(N3CCOC4(CC4)C3)cn1)[C@H](CC(C)(C)C)CO2` [Compound 1148], where the note is “Table 13, read-out: HBE EC50”, the EC50 is less than 1 µM. Besides, the Emax under setting [4] is more than 60%. On to `Cc1cccc(C)c1-c1cc2nc(n1)NS(=O)(=O)c1cccc(c1)C(=O)N(CC(=O)N1CCCCC1)[C@H](CC(C)(C)C)CO2` [Compound 200], for which, under setting [5], the activation at 10 µM is more than 600%. On to `COC[C@@H]1CCCN1c1cccc(CN2C(=O)c3cccc(c3)S(=O)(=O)Nc3nc(cc(-c4c(C)cccc4C)n3)OC[C@H]2CC(C)(C)C)n1` [Compound 275], for which the EC50 (Table 12, read-out: HBE EC50) was less than 1 µM. For the same molecule, under setting [6], the Emax was more than 60%. On to `Cc1cccc(C)c1-c1cc2nc(n1)NS(=O)(=O)c1cccc(c1)C(=O)N(Cc1cnc(N(C)CC(C)(C)C)cn1)[C@H](CC(C)(C)C)CO2` [Compound 899], for which the EC50 (Table 11, read-out: HBE EC50) was less than 1 µM. For the same molecule, the Emax under setting [1] is more than 60%. As for `Cc1cccc(C)c1-c1cc2nc(n1)NS(=O)(=O)c1cccc(c1)C(=O)N(Cc1ncc([C@@H](O)CO)cn1)[C@H](CC(C)(C)C)CO2` [Compound 1152], the concentration giving a half-maximal response (EC50) (Table 13, read-out: HBE EC50) is less than 1 µM. Take `Cc1cccc(C)c1-c1cc2nc(n1)NS(=O)(=O)c1cccc(n1)C(=O)N(Cc1ncc(N3CCC(C)(C)C3=O)cn1)[C@H](CC(C)(C)C)CO2` [Compound 1141]: for the setting “Table 13, read-out: HBE EC50”, the EC50 is less than 1 µM. Further, the Emax under setting [4] is more than 60%. Turning to `Cc1ccnc(CN2C(=O)c3cccc(c3)S(=O)(=O)Nc3nc(cc(-c4c(C)cccc4C)n3)OC[C@H]2CC(C)(C)C)c1` [Compound 1070], the EC50 (Table 11, read-out: HBE EC50) was less than 1 µM. Further, the Emax under setting [1] is more than 60%. Consider `Cc1cccc(C)c1-c1cc2nc(n1)NS(=O)(=O)c1cccc(c1)C(=O)N(Cc1cccc(N3CCC[C@@H]3CC(C)C)n1)[C@H](CC(C)(C)C)CO2` (stereo in doubt) [Compound 1429], for which the EC50 (HBE assay, read-out: HBE EC50) was less than 1 µM. `Cc1cccc(C)c1-c1cc2nc(n1)NS(=O)(=O)c1cccc(c1)C(=O)N(Cc1ncc(N3CCC(OC(C)C)CC3)cn1)[C@H](CC(C)(C)C)CO2` [Compound 568]: the EC50 (Table 12, read-out: HBE EC50) is less than 1 µM. The Emax under setting [6] is more than 60%.

For `Cc1cccc(C)c1-c1cc2nc(n1)NS(=O)(=O)c1cccc(c1)C(=O)N(Cc1cncc(N3CCCC[C@H]3C3CC3)n1)[C@H](CC(C)(C)C)CO2` [Compound 1532], under “read-out: HBE Activity at 10 μM (%)”, the activation at 10 µM was more than 60%. As to `Cc1cccc(C)c1-c1cc2nc(n1)NS(=O)(=O)c1cccc(c1)C(=O)N(Cc1ccc(N3CC(=O)NC3=O)cc1)[C@H](CC(C)(C)C)CO2` [Compound 146, 1-[4-[[(11R)-6-(2,6-Dimethylphenyl)-11-(2,2-dimethylpropyl)-2,2,13-trioxo-9-oxa-2λ^6-thia-3,5,12,19-tetrazatricyclo[12.3.1.14,8]nonadeca-1(18),4(19),5,7,14,16-hexaen-12-yl]methyl]phenyl]imidazolidine-2,4-dione], under “Table 10, read-out: HBE EC50”, the EC50 was in the range of 1 to 3 µM. The Emax under setting [2] was more than 60%. Turning to `Cc1cccc(C)c1-c1cc2nc(n1)NS(=O)(=O)c1cccc(c1)C(=O)N(Cc1cccc(-n3cc(C(C)(C)C)cn3)n1)[C@H](CC(C)(C)C)CO2` [Compound 732], the EC50 (Table 11, read-out: HBE EC50) was less than 1 µM. Besides, the Emax under setting [1] was more than 60%. `Cc1cccc(C)c1-c1cc2nc(n1)NS(=O)(=O)c1cccc(c1)C(=O)N(C[C@H]1CC[C@@H](O)CC1)[C@H](CC(C)(C)C)CO2` (single isomer, unassigned) [Compound 152]: the activation at 10 µM under setting [7] is more than 60%. Regarding `Cc1cccc(C)c1-c1cc2nc(n1)NS(=O)(=O)c1cccc(c1)C(=O)N(Cc1ccccc1-c1csc(OC(C)C)n1)[C@H](CC(C)(C)C)CO2` [Compound 305], the activation at 10 µM under setting [7] is more than 60%.

With `Cc1cccc(C)c1-c1cc2nc(n1)NS(=O)(=O)c1cccc(c1)C(=O)N(CC1CN(C(=O)C(C)(C)C)CCO1)[C@H](CC(C)(C)C)CO2` (stereo partly shown) [Compound 714], the EC50 (Table 11, read-out: HBE EC50) is less than 1 µM. Further, the Emax under setting [1] is more than 60%. As to `Cc1cccc(C)c1-c1cc2nc(n1)NS(=O)(=O)c1cccc(c1)C(=O)N(Cc1cncc(N3CCCC3C(C)C)n1)[C@H](CC(C)(C)C)CO2` (stereo partly shown) [Compound 1383], the EC50 (HBE assay, read-out: HBE EC50) is less than 1 µM. In addition, under setting [8], the Emax was more than 60%. Consider `Cc1cccc(C)c1-c1cc2nc(n1)NS(=O)(=O)c1cccc(c1)C(=O)N(Cc1ccc(Br)cn1)[C@H](CC(C)(C)C)CO2` [Compound 993], for which the activation at 10 µM under setting [5] is more than 600%.

Turning to `Cc1cccc(C)c1-c1cc2nc(n1)NS(=O)(=O)c1cccc(c1)C(=O)N(Cc1ncc(OC3CCCCC3)cn1)[C@H](CC(C)(C)C)CO2` [Compound 561], under setting [3], the activation at 10 µM was more than 600%. For the same molecule, the EC50 (Table 12, read-out: HBE EC50) was less than 1 µM. Besides, the Emax under setting [6] was more than 60%. In the case of `Cc1cccc(C)c1-c1cc2nc(n1)NS(=O)(=O)c1cccc(c1)C(=O)N(Cc1ncc(C(C)(C)C)s1)[C@H](CC(C)(C)C)CO2` [Compound 174], the activation at 10 µM under setting [3] is more than 600%. Take `COC1(C)CCN(c2cnc(CN3C(=O)c4cccc(c4)S(=O)(=O)Nc4nc(cc(-c5c(C)cccc5C)n4)OC[C@H]3CC(C)(C)C)nc2)CC1` [Compound 870]: under setting [5], the activation at 10 µM is more than 600%. Further, the EC50 (Table 13, read-out: HBE EC50) is less than 1 µM. Besides, under setting [4], the Emax is more than 60%. On to `Cc1cccc(C)c1-c1cc2nc(n1)NS(=O)(=O)c1cccc(c1)C(=O)N(Cc1ccc(C3=CCCC3)cn1)[C@H](CC(C)(C)C)CO2` [Compound 810], for which, under “Table 11, read-out: HBE EC50”, the EC50 is less than 1 µM. The Emax under setting [1] is more than 60%. Take `Cc1cccc(C)c1-c1cc2nc(n1)NS(=O)(=O)c1cccc(c1)C(=O)N(Cc1cncc(N(C)CC3C4(CC4)C34CC4)n1)[C@H](CC(C)(C)C)CO2` [Compound 442]: the concentration giving a half-maximal response (EC50) (Table 12, read-out: HBE EC50) was less than 1 µM. Under setting [6], the Emax is more than 60%. As for `Cc1cccc(C)c1-c1cc2nc(n1)NS(=O)(=O)c1cccc(c1)C(=O)N(Cc1ncc(N3CC(C)C3)cn1)[C@H](CC(C)(C)C)CO2` [Compound 1403], the concentration giving a half-maximal response (EC50) (HBE assay, read-out: HBE EC50) is less than 1 µM. Moreover, the Emax under setting [8] was more than 60%.

As for `Cc1cccc(C)c1-c1cc2nc(n1)NS(=O)(=O)c1cccc(c1)C(=O)N(Cc1ncc(N3CC[C@@](C)(O)C3)cn1)[C@H](CC(C)(C)C)CO2` [Compound 542], the EC50 (Table 12, read-out: HBE EC50) was less than 1 µM. Further, the Emax under setting [6] is more than 60%.

On to `Cc1cccc(C)c1-c1cc2nc(n1)NS(=O)(=O)c1cccc(c1)C(=O)N(Cc1cc(N(C)CC(C)(C)C)ccn1)[C@H](CC(C)(C)C)CO2` [Compound 994], for which the activation at 10 µM under setting [5] was more than 600%. For the molecule `Cc1cccc(C)c1-c1cc2nc(n1)NS(=O)(=O)c1cccc(c1)C(=O)N(Cc1cnc(OC(C)C)cn1)[C@H](CC(C)(C)C)CO2` [Compound 897], under “Table 11, read-out: HBE EC50”, the EC50 is less than 1 µM. Besides, the Emax under setting [1] is more than 60%. Take `Cc1cccc(C)c1-c1cc2nc(n1)NS(=O)(=O)c1cccc(c1)C(=O)N(Cc1ncc(OC(C)C)c(C)n1)[C@H](CC(C)(C)C)CO2` [Compound 610]: the EC50 (Table 11, read-out: HBE EC50) was less than 1 µM. Moreover, the Emax under setting [1] is more than 60%.

Take `Cc1cccc(C)c1-c1cc2nc(n1)NS(=O)(=O)c1cccc(c1)C(=O)N(Cc1ccc(N3CCC(C)(C)C3)nc1)[C@H](CC(C)(C)C)CO2` [Compound 883]: the EC50 (Table 12, read-out: HBE EC50) is less than 1 µM. Under setting [6], the Emax was more than 60%. Take `Cc1cccc(C)c1-c1cc2nc(n1)NS(=O)(=O)c1cccc(c1)C(=O)N(Cc1nc3c(ccn3C(C)C)cc1F)[C@H](CC(C)(C)C)CO2` [Compound 1124]: the EC50 (Table 13, read-out: HBE EC50) was less than 1 µM. Further, the Emax under setting [4] was more than 60%.

As to `Cc1cccc(C)c1-c1cc2nc(n1)NS(=O)(=O)c1cccc(c1)C(=O)N(Cc1ncc(OC3CCC3)cn1)[C@H](CC(C)(C)F)CO2` [Compound 1509], where the note is “HBE assay, 10 μM, read-out: HBE Activity at 10 μM (%)”, the activation at 10 µM is more than 60%.

With `Cc1cccc(C)c1-c1cc2nc(n1)NS(=O)(=O)c1cccc(c1)C(=O)N(Cc1ccc(OC(F)(F)F)cn1)[C@H](CC(C)(C)C)CO2` [Compound 1412], the EC50 (HBE assay, read-out: HBE EC50) is less than 1 µM. The Emax under setting [8] is more than 60%. For `Cc1cccc(C)c1-c1cc2nc(n1)NS(=O)(=O)c1cccc(c1)C(=O)N(Cc1nccc(N3CCC(C)(C)C3)n1)[C@H](CC(C)(C)C)CO2` [Compound 648], the EC50 (Table 11, read-out: HBE EC50) is less than 1 µM. Besides, the Emax under setting [1] is more than 60%. `COC[C@H]1CCCN1c1cncc(CN2C(=O)c3cccc(c3)S(=O)(=O)Nc3nc(cc(-c4c(C)cccc4C)n3)OC[C@H]2CC(C)(C)C)n1` [Compound 274]: for the setting “Table 12, read-out: HBE EC50”, the EC50 was less than 1 µM. Also, under setting [6], the Emax is more than 60%. Turning to `CCC(C)Oc1cnc(CN2C(=O)c3cccc(c3)S(=O)(=O)Nc3nc(cc(-c4c(C)cccc4C)n3)OC[C@H]2CC(C)C)nc1` (stereo in doubt) [Compound 1395], for the setting “HBE assay, read-out: HBE EC50”, the EC50 is less than 1 µM. Moreover, the Emax under setting [8] is more than 60%. For the molecule `Cc1cccc(C)c1-c1cc2nc(n1)NS(=O)(=O)c1cccc(c1)C(=O)N(C[C@H]1CC[C@@H](O)CC1)[C@H](CC(C)(C)C)CO2` (single isomer, unassigned) [Compound 151], the EC50 (Table 10, read-out: HBE EC50) was less than 1 µM. Further, under setting [2], the Emax is more than 60%.
